Assay results as given in ChEMBL document CHEMBL5653635, “Induction of apoptosis and cell cycle arrest by CP-358,774, an inhibitor of epidermal growth factor receptor tyrosine kinase” (Cancer Res, 1997).
pIC50: −log10 of the molar value. Active and inactive are the calls of the source. The rule behind the calls is not given here.

Assays:
[1] = target: Insulin-like growth factor 1 receptor (Homo sapiens) (UniProt P08069); assay: Inhibition of IGF-IR (711 to 1377 residues) (unknown origin) expressed in baculovirus-infected Sf9 cells at 20 uM incubated for 8 mins by colorimetry based assay relative to control
Sequence of Insulin-like growth factor 1 receptor (Homo sapiens) (P08069 31-736 limits assumed): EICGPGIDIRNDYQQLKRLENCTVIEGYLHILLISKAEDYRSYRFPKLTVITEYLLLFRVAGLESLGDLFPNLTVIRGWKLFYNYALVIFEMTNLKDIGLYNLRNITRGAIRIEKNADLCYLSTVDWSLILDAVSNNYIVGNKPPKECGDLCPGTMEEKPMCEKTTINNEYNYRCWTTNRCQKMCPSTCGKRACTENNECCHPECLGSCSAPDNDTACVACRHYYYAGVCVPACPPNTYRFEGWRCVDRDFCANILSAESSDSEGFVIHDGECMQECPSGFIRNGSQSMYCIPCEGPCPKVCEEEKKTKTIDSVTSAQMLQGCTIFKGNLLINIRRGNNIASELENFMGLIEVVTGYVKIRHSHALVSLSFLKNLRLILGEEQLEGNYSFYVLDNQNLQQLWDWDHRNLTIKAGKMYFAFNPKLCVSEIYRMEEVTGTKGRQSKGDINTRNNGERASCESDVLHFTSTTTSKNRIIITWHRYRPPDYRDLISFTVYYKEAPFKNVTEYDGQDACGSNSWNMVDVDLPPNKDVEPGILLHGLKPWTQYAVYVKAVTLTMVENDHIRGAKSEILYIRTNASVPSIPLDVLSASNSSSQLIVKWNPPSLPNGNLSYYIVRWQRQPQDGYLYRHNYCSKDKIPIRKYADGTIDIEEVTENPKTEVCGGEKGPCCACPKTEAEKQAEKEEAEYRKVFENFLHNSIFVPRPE
Sequence of Insulin-like growth factor 1 receptor (Homo sapiens) (P08069 741-1367 limits assumed): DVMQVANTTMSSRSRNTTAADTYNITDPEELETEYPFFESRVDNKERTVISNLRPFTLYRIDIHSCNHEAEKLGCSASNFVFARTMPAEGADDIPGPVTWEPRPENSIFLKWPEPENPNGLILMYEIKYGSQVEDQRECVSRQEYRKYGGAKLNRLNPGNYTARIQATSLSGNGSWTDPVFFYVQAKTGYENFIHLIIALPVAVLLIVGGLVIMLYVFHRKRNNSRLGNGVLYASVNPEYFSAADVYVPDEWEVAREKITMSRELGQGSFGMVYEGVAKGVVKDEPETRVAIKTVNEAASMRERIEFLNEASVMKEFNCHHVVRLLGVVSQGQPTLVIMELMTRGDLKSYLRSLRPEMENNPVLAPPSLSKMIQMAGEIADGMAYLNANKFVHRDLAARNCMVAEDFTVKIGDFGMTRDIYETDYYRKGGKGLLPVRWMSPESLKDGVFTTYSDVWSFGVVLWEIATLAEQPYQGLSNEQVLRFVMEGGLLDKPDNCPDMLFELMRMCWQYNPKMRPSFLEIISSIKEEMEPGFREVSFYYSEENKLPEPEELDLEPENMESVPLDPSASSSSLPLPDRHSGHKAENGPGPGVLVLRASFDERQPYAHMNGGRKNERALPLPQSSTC

[2] = target: Insulin-like growth factor 1 receptor (Homo sapiens) (UniProt P08069); assay: Inhibition of IGF-IR (711 to 1377 residues) (unknown origin) expressed in baculovirus-infected Sf9 cells at 10 uM incubated for 8 mins by colorimetry based assay
[3] = system: DiFi; assay: Induction of apoptosis in human DiFi cells at 1 uM incubated for 24 hrs by PI staining based flow cytometry analysis (reference value: 2.3%); type: functional
[4] = system: DiFi; assay: Induction of cell cycle arrest in human DiFi cells assessed as accumulation of cells at S phase at 1 uM incubated for 24 hrs in presence of IGF-1 by PI staining based flow cytometry analysis (reference value: 8 %); type: functional
[5] = system: HN5; assay: Induction of cell cycle arrest in human HN5 cells assessed as increase in accumulation of cells in G1 phase at 1 uM measured after 48 hrs by PI staining based flow cytometry analysis (reference value: 24%); type: functional
[6] = target: Insulin receptor (Homo sapiens) (UniProt P06213); assay: Inhibition of insulin induced phosphorylation of insulin receptor in serum starved human HN5 cells at 1 uM preincubated for 1 hr followed by insulin stimulation and measured after 5 mins by immunoblot analysis; type: cell-based; settings: time 65.0 min
Sequence of Insulin receptor (Homo sapiens) (P06213 28-758 limits assumed): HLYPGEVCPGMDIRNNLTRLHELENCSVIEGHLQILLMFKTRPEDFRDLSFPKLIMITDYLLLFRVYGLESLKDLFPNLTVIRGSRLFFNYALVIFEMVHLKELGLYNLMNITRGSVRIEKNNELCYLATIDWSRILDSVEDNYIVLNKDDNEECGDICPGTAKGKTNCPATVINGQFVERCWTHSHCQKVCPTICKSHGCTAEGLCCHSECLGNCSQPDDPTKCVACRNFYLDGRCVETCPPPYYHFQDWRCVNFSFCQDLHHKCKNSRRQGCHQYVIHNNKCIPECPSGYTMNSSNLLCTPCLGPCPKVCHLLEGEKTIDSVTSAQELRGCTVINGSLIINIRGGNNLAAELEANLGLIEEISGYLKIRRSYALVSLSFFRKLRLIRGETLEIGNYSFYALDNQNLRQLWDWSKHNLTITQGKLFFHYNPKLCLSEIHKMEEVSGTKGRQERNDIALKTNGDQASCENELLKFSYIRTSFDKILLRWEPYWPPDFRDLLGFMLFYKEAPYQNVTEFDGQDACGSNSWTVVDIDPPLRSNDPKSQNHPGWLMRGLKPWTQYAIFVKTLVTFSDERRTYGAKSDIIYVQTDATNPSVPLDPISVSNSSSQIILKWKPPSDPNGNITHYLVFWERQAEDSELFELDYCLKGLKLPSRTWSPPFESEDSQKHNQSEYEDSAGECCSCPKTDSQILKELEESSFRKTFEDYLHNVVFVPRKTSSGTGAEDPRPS
Sequence of Insulin receptor (Homo sapiens) (P06213 763-1382 limits assumed): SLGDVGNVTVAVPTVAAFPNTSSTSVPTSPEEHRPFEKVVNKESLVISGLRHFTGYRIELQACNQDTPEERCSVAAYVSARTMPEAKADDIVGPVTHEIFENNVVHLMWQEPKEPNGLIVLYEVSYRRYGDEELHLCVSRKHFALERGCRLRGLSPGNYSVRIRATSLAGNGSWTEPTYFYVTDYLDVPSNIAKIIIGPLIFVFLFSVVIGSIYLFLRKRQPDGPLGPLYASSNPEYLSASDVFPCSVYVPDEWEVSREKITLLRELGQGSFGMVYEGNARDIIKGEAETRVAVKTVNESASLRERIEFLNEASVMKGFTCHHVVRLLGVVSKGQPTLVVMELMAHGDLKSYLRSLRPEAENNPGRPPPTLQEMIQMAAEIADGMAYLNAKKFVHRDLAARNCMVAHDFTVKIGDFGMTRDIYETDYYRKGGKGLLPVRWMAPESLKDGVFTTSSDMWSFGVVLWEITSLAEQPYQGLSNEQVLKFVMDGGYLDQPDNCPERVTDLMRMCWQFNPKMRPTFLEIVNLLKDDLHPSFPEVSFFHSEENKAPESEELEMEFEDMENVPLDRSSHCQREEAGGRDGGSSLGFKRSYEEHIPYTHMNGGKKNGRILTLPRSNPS

[7] = system: DiFi; assay: Induction of cell cycle arrest in human DiFi cells assessed as accumulation of cells at S phase at 1 uM incubated for 24 hrs by PI staining based flow cytometry analysis (reference value: 8 %); type: functional
[8] = system: DiFi; assay: Induction of cell cycle arrest in human DiFi cells assessed as decrease in cell percentage in S phase at 0.1 uM measured after 24 hrs by BrdUrd incorporation based flow cytometry analysis (reference value: 14 +- 0.5%); type: functional; design: scale not given: the % may be the effect or the level left
[9] = system: DiFi; assay: Induction of apoptosis in human DiFi cells at 1 uM incubated for 24 hrs in presence of IGF-1 by PI staining based flow cytometry analysis (reference value: 2.3%); type: functional
[10] = system: DiFi; assay: Induction of PARP cleavage in human DiFi cells assessed as increase in Mr 85000 fragments at 1 uM incubated for 24 hrs in presence of IGF-1 by Western blotting analysis; type: functional, cell-based
[11] = system: HN5; assay: Induction of cell cycle arrest in human HN5 cells assessed as reduction in accumulation of cells in S phase at 1 uM measured after 48 hrs by PI staining based flow cytometry analysis (reference value: 55%); type: functional; design: scale not given: the % may be the effect or the level left
[12] = system: DiFi; assay: Induction of apoptosis in human DiFi cells assessed as DNA fragmentation at 1 uM measured after 24 hrs in presence of IGF-1 by agarose gel electrophoresis analysis; type: functional, cell-based
[13] = system: DiFi; assay: Induction of PARP cleavage in human DiFi cells assessed as increase in Mr 85000 fragments at 1 uM incubated for 24 hrs by Western blotting analysis; type: functional, cell-based
[14] = Antiproliferative activity against raf-transformed mouse NIH3T3 cells assessed as inhibition of cell viability; type: toxicity, cell-based
[15] = system: DiFi; assay: Induction of cell cycle arrest in human DiFi cells assessed as accumulation of cells at G2 phase at 1 uM incubated for 24 hrs by PI staining based flow cytometry analysis (reference value: 28%); type: functional
[16] = system: DiFi; assay: Antiproliferative activity against human DiFi cells assessed as percentage of viable cells at 1 uM measured after 24 hrs by coulter counter method (reference value: 98+/-0.8%); type: functional
[17] = target: Insulin receptor (Homo sapiens) (UniProt P06213); assay: Inhibition of human recombinant insulin receptor expressed in baculovirus at 10 uM incubated for 8 mins by colorimetry based assay
[18] = system: DiFi; assay: Induction of PARP cleavage in human DiFi cells assessed as increase in Mr 85000 fragments at 8 ug/ml […] incubated for 24 hrs by Western blotting analysis; type: functional, cell-based; settings: dose 8.0 µg/ml
[19] = system: DiFi; assay: Induction of cell cycle arrest in human DiFi cells assessed as accumulation of cells at G1 phase at 1 uM incubated for 24 hrs by PI staining based flow cytometry analysis (reference value: 64%); type: functional
[20] = system: HN5; assay: Antiproliferative activity against human HN5 cells assessed as inhibition of cell viability at 250 nM relative to control; type: functional
[21] = system: DiFi; assay: Induction of apoptosis in human DiFi cells at 1 uM measured after 24 hrs by annexin V-FITC and PI staining based flow cytometry analysis (reference value: 6%); type: functional
[22] = system: DiFi; assay: Induction of apoptosis in human DiFi cells assessed as accumulation of cells at sub-G1 phase at 1 uM measured after 24 hrs in presence of IGF-1 by PI staining based flow cytometry analysis; type: functional, cell-based
[23] = system: HN5; assay: Induction of apoptosis in human HN5 cells assessed as decrease in cell population at 1 uM measured after 24 hrs by PI staining based flow cytometry analysis; type: functional
[24] = system: DiFi; assay: Induction of apoptosis in human DiFi cells assessed as DNA fragmentation by measuring DNA ladders at 1 uM measured after 24 hrs by agarose gel electrophoresis analysis; type: functional, cell-based
[25] = system: DiFi; assay: Induction of apoptosis in human DiFi cells at 1 uM measured after 24 hrs in presence of IGF-1 by annexin V-FITC and PI staining based flow cytometry analysis (reference value: 6%); type: functional
[26] = system: DiFi; assay: Induction of apoptosis in human DiFi cells assessed as decrease in number of normal cells at 1 uM incubated for 24 hrs by annexin V-FITC and PI staining based flow cytometry analysis; type: functional, cell-based
[27] = system: DiFi; assay: Induction of cell cycle arrest in human DiFi cells assessed as accumulation of cells at G1 phase at 1 uM incubated for 24 hrs in presence of IGF-1 by PI staining based flow cytometry analysis (reference value: 64%); type: functional
[28] = system: DiFi; assay: Induction of cell cycle arrest in human DiFi cells assessed as accumulation of cells at G2 phase at 1 uM incubated for 24 hrs in presence of IGF-1 by PI staining based flow cytometry analysis (reference value: 28%); type: functional
[29] = system: DiFi; assay: Induction of apoptosis in human DiFi cells assessed as increase in number of necrotic cells at 1 uM incubated for 24 hrs by annexin V-FITC and PI staining based flow cytometry analysis; type: functional, cell-based
[30] = system: DiFi; assay: Induction of apoptosis in human DiFi cells assessed as accumulation of cells at sub-G1 phase at 1 uM measured after 24 hrs by PI staining based flow cytometry analysis; type: functional, cell-based
[31] = system: DiFi; assay: Induction of cell cycle arrest in human DiFi cells assessed as increase in cell percentage in G1 phase at 0.1 uM measured after 24 hrs by BrdUrd incorporation based flow cytometry analysis (reference value: 82 +- 0.9%); type: functional
[32] = target: Insulin-like growth factor 1 receptor (Homo sapiens) (UniProt P08069); assay: Inhibition of insulin induced phosphorylation of IRS-1 in serum starved human HN5 cells at 1 uM preincubated for 1 hr followed by insulin stimulation and measured after 5 mins by immunoblot analysis; type: cell-based; settings: time 65.0 min
[33] = system: DiFi; assay: Induction of cell cycle arrest in human DiFi cells assessed as increase in cell percentage in G1 phase at 1 uM measured after 24 hrs by BrdUrd incorporation based flow cytometry analysis (reference value: 82 +- 0.9%); type: functional
[34] = system: DiFi; assay: Induction of PARP cleavage in human DiFi cells assessed as decrease in Mr 116000 fragments at 1 uM incubated for 24 hrs by Western blotting analysis; type: functional, cell-based
[35] = system: DiFi; assay: Induction of apoptosis in human DiFi cells assessed as protection of annexin V-FITC binding at 1 uM incubated for 24 hrs in presence of IGF-1 by annexin V-FITC and PI staining based flow cytometry analysis relative to control; type: functional
[36] = system: DiFi; assay: Induction of cell cycle arrest in human DiFi cells assessed as decrease in cell percentage in S phase at 1 uM measured after 24 hrs by BrdUrd incorporation based flow cytometry analysis (reference value: 14 +- 0.5%); type: functional; design: scale not given: the % may be the effect or the level left
[37] = system: DiFi; assay: Induction of PARP cleavage in human DiFi cells assessed as decrease in Mr 116000 fragments at 1 uM incubated for 24 hrs in presence of IGF-1 by Western blotting analysis; type: functional, cell-based
[38] = system: HN5; assay: Antiproliferative activity against human HN5 cells assessed as inhibition of cell viability at 50 nM; type: functional, cell-based

Question: For `N#CC(C#N)=Cc1cc(O)c(O)c(O)c1`, which inhibition [1] is on record?
Answer: 50%

Question: Which inhibition [2] does the source give for `C#Cc1cccc(Nc2ncnc3cc(OCCOC)c(OCCOC)cc23)c1` [ERLOTINIB] here?
Answer: inactive

Question: And the Activity [3]?
Answer: 17%

Question: What about the Activity [4] of the same compound?
Answer: 2%

Question: And the Activity [5]?
Answer: 56%

Question: What about the inhibition [6] of the same compound?
Answer: inactive

Question: And the Activity [7]?
Answer: 5%

Question: What about the Activity [8] of the same compound?
Answer: 9%

Question: What about the Activity [9] of the same compound?
Answer: 7.4%

Question: What about the Activity [10] of the same compound?
Answer: inactive

Question: What about the Activity [11] of the same compound?
Answer: 24%

Question: What about the Activity [12] of the same compound?
Answer: inactive

Question: And the Activity [13]?
Answer: Active

Question: And the pIC50 [14]?
Answer: 5.15

Question: What about the Activity [15] of the same compound?
Answer: 18%

Question: And the Activity [16]?
Answer: 97%

Question: And the inhibition [17]?
Answer: inactive

Question: And the Activity [18]?
Answer: Active

Question: And the Activity [19]?
Answer: 77%

Question: What about the Activity [20] of the same compound?
Answer: 100%

Question: And the Activity [21]?
Answer: 21%

Question: What about the Activity [22] of the same compound?
Answer: inactive

Question: What about the Activity [23] of the same compound?
Answer: Active

Question: What about the Activity [24] of the same compound?
Answer: Active

Question: And the Activity [25]?
Answer: 6%

Question: What about the Activity [26] of the same compound?
Answer: Active

Question: And the Activity [27]?
Answer: 77%

Question: What about the Activity [28] of the same compound?
Answer: 21%

Question: And the Activity [29]?
Answer: inactive

Question: And the Activity [30]?
Answer: Active

Question: And the Activity [31]?
Answer: 85%

Question: And the inhibition [32]?
Answer: inactive

Question: What about the Activity [33] of the same compound?
Answer: 95%

Question: What about the Activity [34] of the same compound?
Answer: Active

Question: What about the Activity [35] of the same compound?
Answer: 100%

Question: What about the Activity [36] of the same compound?
Answer: 0.7%

Question: What about the Activity [37] of the same compound?
Answer: inactive

Question: And the Activity [38]?
Answer: Active
